Molecules are shown by their SMILES.

The target in this test is T1, HPK1 (Homo sapiens, UniProt Q92918).
T1 construct: A HiBiT tag was introduced by CRISPR on the N terminus of HPK1 in Jurkat cells; host or cells: Jurkat (ATCC TIB-152), monoclonal CRISPR HiBiT knock-in line
T1 sequence (Q92918 whole entry): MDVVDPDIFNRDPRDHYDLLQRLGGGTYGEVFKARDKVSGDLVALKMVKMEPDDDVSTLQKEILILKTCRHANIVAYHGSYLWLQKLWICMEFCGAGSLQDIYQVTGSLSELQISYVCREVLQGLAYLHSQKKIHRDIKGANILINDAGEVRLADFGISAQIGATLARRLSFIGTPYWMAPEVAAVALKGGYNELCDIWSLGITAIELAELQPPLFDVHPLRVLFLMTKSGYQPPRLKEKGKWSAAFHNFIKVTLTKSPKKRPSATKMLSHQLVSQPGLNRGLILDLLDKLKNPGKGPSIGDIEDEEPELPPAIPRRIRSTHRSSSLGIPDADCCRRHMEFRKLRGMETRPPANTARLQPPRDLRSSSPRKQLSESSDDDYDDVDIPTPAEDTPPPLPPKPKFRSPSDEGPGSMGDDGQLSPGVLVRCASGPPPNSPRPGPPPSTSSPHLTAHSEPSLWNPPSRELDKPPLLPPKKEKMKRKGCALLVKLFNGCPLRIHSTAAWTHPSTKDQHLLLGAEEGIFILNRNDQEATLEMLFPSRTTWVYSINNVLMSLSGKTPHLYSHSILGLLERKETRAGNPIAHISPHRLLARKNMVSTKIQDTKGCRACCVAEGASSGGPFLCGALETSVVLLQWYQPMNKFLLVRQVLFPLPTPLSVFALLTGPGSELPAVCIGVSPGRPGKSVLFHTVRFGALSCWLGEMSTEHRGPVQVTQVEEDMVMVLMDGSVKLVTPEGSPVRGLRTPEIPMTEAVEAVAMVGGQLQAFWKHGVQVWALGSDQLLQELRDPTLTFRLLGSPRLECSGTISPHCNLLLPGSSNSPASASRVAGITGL
Nature of the test: HPK1 Cellular HiBiT Degradation Assay. It is filed as cell-based. The following applies: HiBiT-tagged HPK1 Jurkat cells, 24 hours, 10 uM to 0.1 nM; Dmax = 100 minus lowest % HPK1 remaining vs DMSO vehicle. As for the experimental part:
HiBiT HPK1 Jurkat cell lines were used to evaluate the total protein levels of HPK1 in a robust human cellular high throughput format. The level of HPK1 remaining following treatment with HPK1 CTMs is reported as Dmax (maximum degradation) achieved at 24 hours when compared to vehicle treated controls. […] These decreases were not a result of cytotoxicity measured by a parallel viability assessment (CTG). See also Table 1.
A HiBiT tag was introduced by CRISPR on the N terminus of HPK1 in Jurkat cells (ATCC® TIB-152) to allow quantitation of HPK1 protein levels in a monoclonal human cell line. Cells were plated at 1×10^6 cells/mL, 30 uL/well (3×10^4 cells/well) in complete RPMI 1640 (10% heat inactivated FBS, 1% L-glutamine) in 384-well assay plates (Corning, cat. no. 3570). HPK1 chimeric targeting molecules (CTMs) were added in an 11-point dilution series (3.16-fold) with a final assay concentration range of 10 uM to 0.1 nM. The parental Jurkat cell line, with no HiBiT insertion, was included in the assay as a background control. Cells treated with a DMSO vehicle control were used to determine the maximum signal defining 100% HPK1 in the cell. Cells were incubated for 24 hours at 37° C./5% CO2. Following incubation, 30 uL of complete Nano-Glo HiBiT Lytic Detection Reagent (Promega cat. no. N3040) was added. Cells were incubated for 10 minutes at room temperature and luminescence was read on an EnVision plate reader (Perkin Elmer, 0.1 sec per well). Parallel plates were assessed for viability using Cell Titer Glo (Promega) and read on an EnVision plate reader to ensure results were not the effect of cytotoxicity. Percent HPK1 remaining per sample was calculated as follows: […]
% HPK1 remaining values were plotted as a function of compound concentration and curves were fit using the Prism (GraphPad) equation “log(inhibitor) vs response−Variable slope (four parameters)”. Dmax values were calculated by identifying the lowest % remaining and subtracting from 100. Dmax values are provided in Table 1, wherein A>65%, 45%≤B≤65% and C<45%.
For `Cc1cc(F)c(Nc2nc(-c3ccc4c(c3)N([C@H]3C[C@@H](N5CCCCC5)C3)C(=O)C43CCN(C(=O)CCCCCCCC(=O)N[C@H](C(=O)N4C[C@H](O)C[C@H]4C(=O)N[C@@H](C)c4ccc(-c5scnc5C)cc4)C(C)(C)C)CC3)cc3ncn(C(C)C)c23)cc1C(=O)NC(C)C` [Example 10, (2S,4R)-1-((S)-2-(9-(6-(4-((2-fluoro-5-(isopropylcarbamoyl)-4-methylphenyl)amino)-3-isopropyl-3H-imidazo[4,5-c]pyridin-6-yl)-2-oxo-1-((1s,3s)-3-(piperidin-1-yl)cyclobutyl)spiro[indoline-3,4′-piperidin]-1′-yl)-9-oxononanamido)-3,3-dimethylbutanoyl)-4-hydroxy-N—((S)-1-(4-(4-methylthiazol-5-yl)phenyl)ethyl)pyrrolidine-2-carboxamide], the greatest degradation seen (Dmax) was more than 65%.
`Cc1cc(F)c(Nc2nc(-c3ccc4c(c3)N([C@H]3C[C@@H](N5CCCCC5)C3)C(=O)C43CCN(C(=O)CCOCCNc4cccc5c4C(=O)N(C4CCC(=O)NC4=O)C5=O)CC3)cc3ncn(C(C)C)c23)cc1C(=O)NC(C)C` (stereo partly shown) [Example 11, 5-((6-(1′-(3-(2-((2-(2,6-dioxopiperidin-3-yl)-1,3-dioxoisoindolin-4-yl)amino)ethoxy)propanoyl)-2-oxo-1-((1s,3s)-3-(piperidin-1-yl)cyclobutyl)spiro[indoline-3,4′-piperidin]-6-yl)-3-isopropyl-3H-imidazo[4,5-c]pyridin-4-yl)amino)-4-fluoro-N-isopropyl-2-methylbenzamide] yielded a Dmax of less than 45%.
Compound `Cc1cc(F)c(Nc2nc(-c3ccc4c(c3)N([C@H]3C[C@@H](N5CCCCC5)C3)C(=O)C43CCN(C(=O)CCOCCOCCOCCOCCOCCNc4cccc5c4C(=O)N(C4CCC(=O)NC4=O)C5=O)CC3)cc3ncn(C(C)C)c23)cc1C(=O)NC(C)C` (stereo partly shown) [Example 12, 5-((6-(1′-(1-((2-(2,6-dioxopiperidin-3-yl)-1,3-dioxoisoindolin-4-yl)amino)-3,6,9,12,15-pentaoxaoctadecan-18-oyl)-2-oxo-1-((1s,3s)-3-(piperidin-1-yl)cyclobutyl)spiro[indoline-3,4′-piperidin]-6-yl)-3-isopropyl-3H-imidazo[4,5-c]pyridin-4-yl)amino)-4-fluoro-N-isopropyl-2-methylbenzamide] had a Dmax of 45 to 65%.
With `Cc1cc(F)c(Nc2nc(-c3ccc4c(c3)N([C@H]3C[C@@H](N5CCCCC5)C3)C(=O)C43CCN(C(=O)CCCCCCCOc4cc(-c5scnc5C)ccc4CNC(=O)[C@@H]4C[C@@H](O)CN4C(=O)[C@@H](NC(=O)C4(F)CC4)C(C)(C)C)CC3)cc3ncn(C(C)C)c23)cc1C(=O)NC(C)C` [Example 13, (2S,4R)—N-(2-((8-(6-(4-((2-fluoro-5-(isopropylcarbamoyl)-4-methylphenyl)amino)-3-isopropyl-3H-imidazo[4,5-c]pyridin-6-yl)-2-oxo-1-((1s,3s)-3-(piperidin-1-yl)cyclobutyl)spiro[indoline-3,4′-piperidin]-1′-yl)-8-oxooctyl)oxy)-4-(4-methylthiazol-5-yl)benzyl)-1-((S)-2-(1-fluorocyclopropane-1-carboxamido)-3,3-dimethylbutanoyl)-4-hydroxypyrrolidine-2-carboxamide], the Dmax is less than 45%.
The value for `Cc1cc(F)c(Nc2nc(-c3ccc4c(c3)N([C@H]3C[C@@H](N5CCCCC5)C3)C(=O)C43CCN(C(=O)CCC4CCN(CC(=O)N[C@H](C(=O)N5C[C@H](O)C[C@H]5C(=O)N[C@@H](C)c5ccc(-c6scnc6C)cc5)C(C)(C)C)CC4)CC3)cc3ncn(C(C)C)c23)cc1C(=O)NC(C)C` [Example 14, (2S,4R)-1-((S)-2-(2-(4-(3-(6-(4-((2-fluoro-5-(isopropylcarbamoyl)-4-methylphenyl)amino)-3-isopropyl-3H-imidazo[4,5-c]pyridin-6-yl)-2-oxo-1-((1s,3s)-3-(piperidin-1-yl)cyclobutyl)spiro[indoline-3,4′-piperidin]-1′-yl)-3-oxopropyl)piperidin-1-yl)acetamido)-3,3-dimethylbutanoyl)-4-hydroxy-N—((S)-1-(4-(4-methylthiazol-5-yl)phenyl)ethyl)pyrrolidine-2-carboxamide] was 45 to 65%; that for `CC(=O)N1CCC2(CC1)C(=O)N([C@H]1C[C@@H](N3CCC[C@@H](C(=O)NCCCCCCCCCNc4ccc5c(c4)C(=O)N(C4CCC(=O)NC4=O)C5=O)C3)C1)c1cc(-c3cc4ncn(C(C)C)c4c(Nc4cc(C(=O)NC(C)C)c(C)cc4F)n3)ccc12` (stereo partly drawn) [Example 15, (3R)-1-((1s,3s)-3-(1′-acetyl-6-(4-((2-fluoro-5-(isopropylcarbamoyl)-4-methylphenyl)amino)-3-isopropyl-3H-imidazo[4,5-c]pyridin-6-yl)-2-oxospiro[indoline-3,4′-piperidin]-1-yl)cyclobutyl)-N-(9-((2-(2,6-dioxopiperidin-3-yl)-1,3-dioxoisoindolin-5-yl)amino)nonyl)piperidine-3-carboxamide] was less than 45%.
The compound `CC(=O)N1CCC2(CC1)C(=O)N([C@H]1C[C@@H](N3CCC[C@@H](C(=O)NCCCCCCCOc4cc(-c5scnc5C)ccc4CNC(=O)[C@@H]4C[C@@H](O)CN4C(=O)[C@@H](NC(=O)C4(F)CC4)C(C)(C)C)C3)C1)c1cc(-c3cc4ncn(C(C)C)c4c(Nc4cc(C(=O)NC(C)C)c(C)cc4F)n3)ccc12` [Example 16, (R)-1-((1s,3s)-3-(1′-acetyl-6-(4-((2-fluoro-5-(isopropylcarbamoyl)-4-methylphenyl)amino)-3-isopropyl-3H-imidazo[4,5-c]pyridin-6-yl)-2-oxospiro[indoline-3,4′-piperidin]-1-yl)cyclobutyl)-N-(7-(2-(((2S,4R)-1-((S)-2-(1-fluorocyclopropane-1-carboxamido)-3,3-dimethylbutanoyl)-4-hydroxypyrrolidine-2-carboxamido)methyl)-5-(4-methylthiazol-5-yl)phenoxy)heptyl)piperidine-3-carboxamide] returned a Dmax of less than 45%.
Compound `CC(=O)N1CCC2(CC1)C(=O)N([C@H]1C[C@@H](N3CCC[C@@H](C(=O)NCCCCCCCCCOc4cc(-c5scnc5C)ccc4CNC(=O)[C@@H]4C[C@@H](O)CN4C(=O)[C@@H](NC(=O)C4(F)CC4)C(C)(C)C)C3)C1)c1cc(-c3cc4ncn(C(C)C)c4c(Nc4cc(C(=O)NC(C)C)c(C)cc4F)n3)ccc12` [Example 17, (R)-1-((1s,3s)-3-(1′-acetyl-6-(4-((2-fluoro-5-(isopropylcarbamoyl)-4-methylphenyl)amino)-3-isopropyl-3H-imidazo[4,5-c]pyridin-6-yl)-2-oxospiro[indoline-3,4′-piperidin]-1-yl)cyclobutyl)-N-(9-(2-(((2S,4R)-1-((S)-2-(1-fluorocyclopropane-1-carboxamido)-3,3-dimethylbutanoyl)-4-hydroxypyrrolidine-2-carboxamido)methyl)-5-(4-methylthiazol-5-yl)phenoxy)nonyl)piperidine-3-carboxamide] displayed a Dmax of less than 45%.
`Cc1cc(F)c(Nc2nc(-c3ccc4c(c3)N([C@H]3C[C@@H](N5CCCCC5)C3)C(=O)C43CCN(C(=O)CN4CCN(CC(=O)N[C@H](C(=O)N5C[C@H](O)C[C@H]5C(=O)N[C@@H](C)c5ccc(-c6scnc6C)cc5)C(C)(C)C)CC4)CC3)cc3ncn(C(C)C)c23)cc1C(=O)NC(C)C` [Example 18, (2S,4R)-1-((S)-2-(2-(4-(2-(6-(4-((2-fluoro-5-(isopropylcarbamoyl)-4-methylphenyl)amino)-3-isopropyl-3H-imidazo[4,5-c]pyridin-6-yl)-2-oxo-1-((1s,3s)-3-(piperidin-1-yl)cyclobutyl)spiro[indoline-3,4′-piperidin]-1′-yl)-2-oxoethyl)piperazin-1-yl)acetamido)-3,3-dimethylbutanoyl)-4-hydroxy-N—((S)-1-(4-(4-methylthiazol-5-yl)phenyl)ethyl)pyrrolidine-2-carboxamide]: the Dmax is 45 to 65%.
In the case of `Cc1cc(F)c(Nc2nc(-c3ccc4c(c3)N([C@H]3C[C@@H](N5CCCCC5)C3)C(=O)C43CCN(C(=O)CN4CCC(CCCCC(=O)N[C@H](C(=O)N5C[C@H](O)C[C@H]5C(=O)N[C@@H](C)c5ccc(-c6scnc6C)cc5)C(C)(C)C)CC4)CC3)cc3ncn(C(C)C)c23)cc1C(=O)NC(C)C` [Example 19, (2S,4R)-1-((S)-2-(5-(1-(2-(6-(4-((2-fluoro-5-(isopropylcarbamoyl)-4-methylphenyl)amino)-3-isopropyl-3H-imidazo[4,5-c]pyridin-6-yl)-2-oxo-1-((1s,3s)-3-(piperidin-1-yl)cyclobutyl)spiro[indoline-3,4′-piperidin]-1′-yl)-2-oxoethyl)piperidin-4-yl)pentanamido)-3,3-dimethylbutanoyl)-4-hydroxy-N—((S)-1-(4-(4-methylthiazol-5-yl)phenyl)ethyl)pyrrolidine-2-carboxamide] it was less than 45%.

Values taken from patent US11739101B2, “Bifunctional degraders of hematopoietic progenitor kinase and therapeutic uses thereof” (Nurix Therapeutics, Inc., priority 2020, dated 2023).
